Data from patent publication US20260193254A1, “2-OXOQUINAZOLINE CRYSTALLINE FORMS” (IDEAYA Biosciences, Inc., priority 2022, published 2026).
In brackets after ≈: the same amount, converted by molar mass.

Tests used:
Type in all cases: physicochemical
[1] = Grinding simulation experiments - wet grinding (granulation)
Experimental: Water or ethanol was added drop wise to about 20 mg of Form A, Form D, or Form T until solid was wetted sufficiently. Vortex was applied between each addition. Samples were dried under ambient condition for 10 min. Potential form transition and degree of crystallinity were evaluated by XRPD.

[2] = Variable humidity and temperature XRPD experiments
Experimental: Based on DVS and DSC results of Form C, Form C starts to loss water when humidity is below 30% or when temperature is higher than about 44° C. […] In order to determine identity of potential form changes after the dehydration and upon the solid-solid transition, variable humidity and variable temperature XRPD techniques were applied. XRPD patterns of the sample were measured online under 25° C./ambient environment (initial)-120° C./N2 protection-25° C./ambient environment-25° C./80% RH (40 min)-25° C./0% RH (15 h), and 25° C./ambient environment (initial)-250° C./N2 protection-25° C./ambient environment. […] Form L coverts back to Form C after exposure to 25° C./80% RH for 40 min.
Based on DVS and DSC results of Form D, Form D starts to loss water when humidity is below 10% or when temperature is higher than 46° C. In order to determine identity of the dehydration product, variable humidity and variable temperature XRPD techniques were applied. XRPD patterns of the sample were measured online with a temperature cycle of 25° C./ambient environment (initial)-130° C./N2 protection (10 min)-25° C./N2 protection-25° C./ambient environment (3h) and two water sorption and desorption cycles of 50% RH (initial)-90% RH (3h)-60% RH (2h)-40% RH (2h)-20% RH (3h)-10% RH (3h)-0% RH (6h)-10% RH (3h)-20% RH (3h)-50% RH at 25° C. […] (higher than dehydration temperature). Form S converts back to Form D after exposure to ambient condition for 3 h.
In order to investigate potential form change of Form A upon heating, variable temperature XRPD technique was applied. XRPD patterns of the sample were measured online with a temperature cycle of 25° C. (initial)-50° C./N2 protection-70° C./N2 protection-250° C./N2 protection-25° C./N2 protection-25° C./ambient condition (3h). […] Form A converts to Form U when temperature is 250° C., and Form U converts to Form T after cooling to 25° C.

[3] = Grinding simulation experiments - dry grinding
Experimental: About 20 mg of Form A, Form D, and Form T were ground manually with a mortar and a pestle for 5 min or 1 min. Potential from transition and degree of crystallinity were evaluated by XRPD.

[4] = Vapor diffusion experiments; conditions: VD6 Ethanol (8), anti-solvent t-Butyl methyl ether, 1:4, room temperature
Experimental: After sonication for about 30 seconds, obtained solution or suspension is filtered by a 0.45 μm syringe membrane filter. A clear solution is obtained. A suitable volume of the clear solution is transferred into a small glass vial (8 mL) without a lid and the lidless small vial was placed into a large glass vial (40 mL) containing anti-solvents in the bottom (solvent: anti-solvent=1:4, v/v). The large vials are tightly capped and placed at room temperature. Precipitates were collected by filtration. Solid part (wet cake) was investigated by XRPD.

[5] = Crystallization from hot saturated solutions by fast cooling; conditions: 50° C. to ice bath
Experimental: Obtained solution or suspension was filtered by a 0.45 μm syringe membrane filter. Clear solutions were put into an ice bath and agitated. Precipitates were collected by filtration. The solid part (wet cake) was investigated by XRPD. When differences were observed, additional investigations were performed (e.g. DSC, TGA, etc.).

[6] = Approximate solubility of solid state Form V at 25° C. and 50° C. (visual observation); conditions: thermodynamic from solid
Experimental: Maximum volume of each solvent added was 1 mL. Approximate solubility was determined by visual observation.

[7] = Crystallization from hot saturated solutions by slow cooling; conditions: 50° C. to 5° C. at 0.1° C./min
Experimental: Obtained solution or suspension was filtered by a 0.45 μm syringe membrane filter. Clear solutions were cooled to 5° C. at 0.1° C./min. Precipitates were collected by filtration. The solid part (wet cake) was investigated by XRPD. When differences were observed, additional investigations were performed (e.g. DSC, TGA, etc.).

[8] = Equilibration with solvents at 50° C. for 1 week; conditions: XRPD of wet cake
Experimental: Obtained suspension was filtered. The solid part (wet cake) was investigated by XRPD. When differences were observed, additional investigations were performed (e.g. DSC, TGA etc.).

[9] = variable temperature XRPD, N2 protection

In the case of `Nc1nc(=O)n(-c2ccccc2Cl)c2nc(C(F)(F)F)ccc12` [Form A, 4-Amino-1-(2-chlorophenyl)-7-(trifluoromethyl)pyrido[2,3-d]pyrimidin-2(1H)-one], the “XRPD after wet grinding” value ([1]; Ethanol) is reported as “substantially amorphous”, the “tolerance to granulation with ethanol or water” value ([1]; wet grinding, XRPD) is reported as “poor tolerance” and the “XRPD (XRPD method 2)” value ([2]; VT16 70° C./37% RH (10 min)) is reported as “Form A”. The “XRPD (XRPD method 2)” value ([2]; VT18 25° C./N2 protection (10 min)) was “Form T”, the “XRPD (XRPD method 2)” value ([2]; VT19 25° C./37% RH (3 h)) was “Form T” and the “form change after heating to 70° C.” value [2, 9] was “no form change”. For the same compound, the “form obtained on heating to 250° C.” value [2, 9] was “Form U”, the “XRPD after dry grinding” value ([3]; Dry grinding for 1 min) was “substantially amorphous” and the “XRPD after dry grinding” value ([3]; Dry grinding for 5 min) was “substantially amorphous”. For the same compound, the “tolerance to dry grinding” value ([3]; ground manually with mortar and pestle, 5 min or 1 min, XRPD) was “poor tolerance”.
In the case of `Nc1nc(=O)n(-c2ccccc2Cl)c2nc(C(F)(F)F)ccc12` [solid state Form V, 4-Amino-1-(2-chlorophenyl)-7-(trifluoromethyl)pyrido[2,3-d]pyrimidin-2(1H)-one], the “Crystalline Form formed by vapor diffusion” value [4] is reported as “Form H”, the “Crystalline Form formed by fast cooling of hot saturated solution” value (“Crystalline Form formed by fast cooling” for short) ([5]; FC1 Methanol (30 mg/mL)) is reported as “Form C” and the “Crystalline Form formed by fast cooling” value ([5]; FC2 Ethanol (13 mg/mL)) is reported as “Solid state Form V”. The “Crystalline Form formed by fast cooling” value ([5]; FC3 2-Propanol (7 mg/mL)) was “Form J (IPA solvate)”, the “Crystalline Form formed by fast cooling” value ([5]; FC4 Acetone (7 mg/mL)) was “Form G” and the “Crystalline Form formed by fast cooling” value ([5]; FC5 Methanol/water = 1/1 (v/v) (6 mg/mL)) was “Form C”. The “Crystalline Form formed by fast cooling” value ([5]; FC6 Ethanol/water = 1/1 (v/v) (8 mg/mL)) was “Form F”, the “Crystalline Form formed by fast cooling” value ([5]; FC7 Methanol/MTBE = 1/1 (v/v) (13 mg/mL)) was “Form H (MTBE solvate)” and the solubility at 10 min ([6]; organic solvent or mixture, SL2 Methanol, 25° C.) was 15000 to 18000 µg/mL (≈ 44 to 52.8 mM). It also gave a solubility at 10 min ([6]; organic solvent or mixture, SL2 Methanol, 50° C.) of 30000 to 35000 µg/mL (≈ 88.1 to 103 mM), a solubility at 10 min ([6]; organic solvent or mixture, SL3 Ethanol, 25° C.) of 7000 to 8000 µg/mL (≈ 20.5 to 23.5 mM) and a solubility at 10 min ([6]; organic solvent or mixture, SL3 Ethanol, 50° C.) of 15000 to 17000 µg/mL (≈ 44 to 49.9 mM). The solubility at 10 min ([6]; organic solvent or mixture, SL4 2-Propanol, 25° C.) was under 5000 µg/mL, the solubility at 10 min ([6]; organic solvent or mixture, SL4 2-Propanol, 50° C.) was 5000 to 10000 µg/mL (≈ 14.7 to 29.4 mM) and the solubility at 10 min ([6]; organic solvent or mixture, SL5 Ethyl acetate, 25° C.) was under 5000 µg/mL. It also gave a solubility at 10 min ([6]; organic solvent or mixture, SL5 Ethyl acetate, 50° C.) of under 5000 µg/mL, a solubility at 10 min ([6]; organic solvent or mixture, SL6 Isopropyl acetate, 25° C.) of under 5000 µg/mL and a solubility at 10 min ([6]; organic solvent or mixture, SL6 Isopropyl acetate, 50° C.) of under 5000 µg/mL. For the same compound, the solubility at 10 min ([6]; organic solvent or mixture, SL7 Acetone, 25° C.) was under 5000 µg/mL, the solubility at 10 min ([6]; organic solvent or mixture, SL7 Acetone, 50° C.) was 5000 to 10000 µg/mL (≈ 14.7 to 29.4 mM) and the solubility at 10 min ([6]; organic solvent or mixture, SL8 Methyl ethyl ketone, 25° C.) was under 5000 µg/mL. For the same compound, the solubility at 10 min ([6]; organic solvent or mixture, SL8 Methyl ethyl ketone, 50° C.) was under 5000 µg/mL, the solubility at 10 min ([6]; organic solvent or mixture, SL9 t-Butyl methyl ether, 25° C.) was under 5000 µg/mL and the solubility at 10 min ([6]; organic solvent or mixture, SL9 t-Butyl methyl ether, 50° C.) was under 5000 µg/mL. It also gave a solubility at 10 min ([6]; organic solvent or mixture, SL10 Tetrahydrofuran, 25° C.) of under 5000 µg/mL, a solubility at 10 min ([6]; organic solvent or mixture, SL10 Tetrahydrofuran, 50° C.) of under 5000 µg/mL and a solubility at 10 min ([6]; organic solvent or mixture, SL11 2-methyl-THF, 25° C.) of under 5000 µg/mL. It also gave a solubility at 10 min ([6]; organic solvent or mixture, SL11 2-methyl-THF, 50° C.) of under 5000 µg/mL, a solubility at 10 min ([6]; organic solvent or mixture, SL12 Acetonitrile, 25° C.) of under 5000 µg/mL and a solubility at 10 min ([6]; organic solvent or mixture, SL12 Acetonitrile, 50° C.) of under 5000 µg/mL. It also gave a solubility at 10 min ([6]; organic solvent or mixture, SL13 Heptane, 25° C.) of under 5000 µg/mL, a solubility at 10 min ([6]; organic solvent or mixture, SL13 Heptane, 50° C.) of under 5000 µg/mL and a solubility at 10 min ([6]; organic solvent or mixture, SL14 Dichloromethane, 25° C.) of under 5000 µg/mL. The solubility at 10 min ([6]; organic solvent or mixture, SL14 Dichloromethane, 50° C.) was under 5000 µg/mL, the solubility at 10 min ([6]; organic solvent or mixture, SL15 Toluene, 25° C.) was under 5000 µg/mL and the solubility at 10 min ([6]; organic solvent or mixture, SL15 Toluene, 50° C.) was under 5000 µg/mL. For the same compound, the solubility at 10 min ([6]; SL1 Water, 25° C.) was under 5000 µg/mL, the solubility at 10 min ([6]; SL1 Water, 50° C.) was under 5000 µg/mL and the “Crystalline Form formed by slow cooling of hot saturated solution” value (“Crystalline Form formed by slow cooling” below) ([7]; SC2 Ethanol (14 mg/mL)) was “Form F”. The “Crystalline Form formed by slow cooling” value ([7]; SC4 Acetone (7 mg/mL)) was “Form G”, the “Crystalline Form formed by slow cooling” value ([7]; SC6 Ethanol/water = 1/1 (v/v) (8 mg/mL)) was “Form F” and the “Crystalline Form formed by slow cooling” value ([7]; SC8 Ethanol/acetone = 1/1 (v/v) (16 mg/mL)) was “Form G”. For the same compound, the “Crystalline Form formed by equilibration” value ([8]; EQ20 Water (64 mg/mL)) was “Form D (mono hydrate)”, the “Crystalline Form formed by equilibration” value ([8]; EQ21 Methanol (63 mg/mL)) was “Form C (hemi-hydrate)” and the “Crystalline Form formed by equilibration” value ([8]; EQ22 Methanol/water = 1/1 (v/v) (64 mg/mL)) was “Form E (hemi-hydrate)”. For the same compound, the “Crystalline Form formed by equilibration” value ([8]; EQ24 Ethanol/water = 1/1 (v/v) (63 mg/mL)) was “Form C (hemi-hydrate)”, the “Crystalline Form formed by equilibration” value ([8]; EQ26 Acetone (65 mg/mL)) was “Form G” and the “Crystalline Form formed by equilibration” value ([8]; EQ27 Acetone/water = 1/1 (v/v) (63 mg/mL)) was “Form I”. The “Crystalline Form formed by equilibration” value ([8]; EQ29 t-Butyl methyl ether (65 mg/mL)) was “Form H (MTBE solvate)” and the “Crystalline Form formed by equilibration” value ([8]; EQ30 t-Butyl methyl ether/water = 95/5 (v/v) (63 mg/mL)) was “Form H (MTBE solvate)”.
